Test results taken from patent publication US11173158B2, “Medicinal agent and beverage/food for preventing cerebral dysfunction and improving same” (PTC Therapeutics MP, Inc., priority 2010, dated 2021).
“Also recorded” adds a separate entry of the source.

Tests used:
hph-1 mice = test: Amount of serotonin in brain of hph-1 mice after oral administration; type: in vivo, mouse; settings: oral 20 mg/kg twice (2 h apart), brain 6 hours after first administration, FIG. 6
Protocol: The mice used were those of “hph-1” which were provided by Dr. […] (Institute of Metabolic Disease, Baylor University Medical Center, Dallas, Tex. 75226, USA). The mice are characterized as being defective in biosynthesis functions of tetrahydrobiopterin, with the level of tetrahydrobiopterin in the brain being from 40 to 50% as compared with ordinary mice. The mice were bred in a dark place for 12 hours and also in a light place for 12 hours and fed ad libitum with a diet (“MM-3” made by Funabashi Farm Co., Ltd.) and sterilized tap water as drinking water. An amount of serotonin was measured by dissolving sepiapterin or tetrahydrobiopterin in 0.01 M hydrochloric acid, thereafter administering orally each of the resultants at 20 mg/kg to the mice, giving another oral administration at the same dose two hours thereafter, and excised the brains from each mouse six hours after the first administration (n=7 in a group treated with sepiapterin, and n=8 in a group treated with tetrahydrobiopterin). […] In a control group, measurement was made similarly by orally administering 0.01M hydrochloric acid.

NZB mice = test: Forced swim test in mice; type: in vivo, mouse; settings: intraperitoneal single dose 10 mg/kg, test after 40 minutes, five-minute swimming, FIG. 7
Protocol: In Example 6, the mice were subjected to a forced swim test after administration of sepiapterin. The forced swim test of the mice is a test method for evaluating antidepressant effects, and length of “immobile” time is a criterion of depression. Evaluation is made in such a manner that the shorter the “immobile” time is, the greater the antidepressant effects are. The mice used were NZB mice purchased from. Japan SLC, Inc (7-week old males). The mice were maintained in a dark place for 12 hours and in a light place for 12 hours and fed ad libitum with a diet (“MM-3” made by Funabashi Farm Co., Ltd.) and sterilized tap water as drinking water, except when they were constrained in an experiment. The mice are characterized in that they are more likely to develop an auto-immune disease with advancement of age. […] The mice which had been subjected to 15-minute preliminary swimming without administration of a drug, etc., on the previous day were used in the experiment. The mice were intraperitoneally administered tetrahydrobiopterin (n=7) or sepiapterin (n=5) at a single dose of 10 mg/kg and subjected to a forced swim test after 40 minutes to measure “immobile” time. The test was conducted under dim light by using a 15 cm-across and 15 cm-deep water tank kept at a temperature of 22° C. “Immobile” time was measured by calculating an added value of “immobile” time during five-minute-swimming. […]

SD rats = test: Amounts of tetrahydrobiopterin, serotonin and 5-hydroxyindoleacetic acid in rat brain after oral administration; type: in vivo; settings: 0-8 hours after administration; for amount of tetrahydrobiopterin in the brain: FIG. 5A
Protocol: In Example 4, rats were used to measure amounts of tetrahydrobiopterin, serotonin and 5-hydroxyindoleacetic acid in the brain on administration of sepiapterin. Rats used were SD rats (7-8 week old, males) purchased from Japan SLC, Inc. The rats were kept in a dark place for 12 hours and in a light place for 12 hours and fed ad libitum with a diet (“MM-3” made by Funabashi Farm Co., Ltd.) and sterilized tap water as drinking water. Sepiapterin or tetrahydrobiopterin was dissolved in 10 mM hydrochloric acid, the resultant of which was orally administered to the rats (n=6) under diethylether anesthesia. After 1, 1.5, 2, 3, 4, 6 and 8 hours, the brains were excised under pentobarbital sodium anesthesia (pentobarbital was intraperitoneally administered at 40 mg/kg five minutes before), and the brain was divided into two portions at the median line to obtain left and right brain samples. Rats not treated with sepiapterin or tetrahydrobiopterin were used as samples at 0 hours after administration according to the same procedures. […] Amounts of serotonin and 5-hydroxyindoleacetic acid in the brain were calculated by adding 3.5 times the volume of 1.43% ascorbic acid-containing 100 mM hydrochloric acid which contains N-methyl serotonin as an internal standard to a right brain sample, homogenizing brain tissues, adding […] (final concentration of 5.5%) thereto, ice-cooling the resultant for removing protein and treating a supernatant thereof in a system of high performance liquid chromatography/fluorescence detection (HPLC/FD), (refer to Non-Patent Document 9). In the high performance liquid chromatography, as with Example 1, etc., “Fine-SIL-C18-5T (made by JASCO Corporation)” was used as a column. […] In the system of high performance liquid chromatography/fluorescence detection (HPLC/FD), 5-hydroxytryptophan (5HTP), serotonin, N-methyl serotonin, tryptophan and 5-hydroxyindoleacetic acid are eluted in the above order, thus making it possible to determine quantitatively these substances at the same time.

PC12 cells = test: Total amount of biopterin in PC12 cells after addition to culture medium; type: cell-based; settings: 100 μM added, 0-180 min, FIG. 2A
Protocol: (§1) In Example 1, where PC12 cells and RBL2H3 cells were used as aromatic monoamine synthesizing cells and sepiapterin was added to a culture medium, evaluation was made for a total amount of biopterin in the cells (a total amount of tetrahydrobiopterin, and its oxidant, dihydrobiopterin and biopterin, the same shall apply hereinafter).
(§2) The PC12 cells are cultured cells having properties of a neuron and it is known that they synthesize dopamine, noradrenaline and adrenaline, with tetrahydrobiopterin used as a coenzyme. The RBL2H3 cells are cultured cells having properties of a mast cell and it is known that they synthesize serotonin, with tetrahydrobiopterin used as a coenzyme. […]
(§3) A total amount of biopterin in the cells was measured by using a system of high performance liquid chromatography/fluorescence detection (HPLC/FD) according to the Fukusima-Nixon method (refer to Non-Patent Document 8).
(§4) A principle of the Fukushima-Nixon method is as follows. Upon oxidation with iodine under strong acid or alkaline conditions, tetrahydrobiopterin is quantitatively oxidized into oxidized-form biopterin under acid conditions and oxidized into oxidized-form pterin in which a side chain in the 6th-class position is removed under alkaline conditions. […] The oxidized-form biopterin and the oxidized-form pterin have strong natural fluorescent characteristics (excitation: 350 nm, fluorescence: 450 nm). […]

RBL2H3 cells = test: Total amount of biopterin in RBL2H3 cells after addition to culture medium; type: cell-based; settings: 100 μM added, 0-180 min, FIG. 2B
Protocol: as §1, §2, §3, §4

SMILES | amount of serotonin in the brain (hph-1 mice) | "immobile" time in forced swim test (NZB mice) | amount of tetrahydrobiopterin in the brain (SD rats) | amount of serotonin in the brain (SD rats; FIG. 5B) | change in the total amount of biopterin in the cells (PC12 cells) | change in the total amount of biopterin in the cells (RBL2H3 cells)
C[C@H](O)C(=O)C1=Nc2c(nc(N)[nH]c2=O)NC1 [sepiapterin, 7,8-Dihydro-6-[(S)-2-hydroxy-1-oxopropyl]-pterin] | significant increase | significantly short | significant increase | significantly increased | remarkable increase | remarkable increase
C[C@H](O)[C@H](O)[C@H]1CNc2nc(N)[nH]c(=O)c2N1 [tetrahydrobiopterin, Tetrahydrobiopterin] | – | – | did not show an increase | – | substantially no change; also recorded: slight increase | substantially no change; also recorded: slight increase
